Test results as given in the supplement of paper PMC10307832.

Assays:
Test in all cases: relative viability (nuclei count vs DMSO), 5 days (fraction); higher = more cells survive
Lapatinib + Foretinib = compound: CS(=O)(=O)CCNCc1ccc(-c2ccc3ncnc(Nc4ccc(OCc5cccc(F)c5)c(Cl)c4)c3c2)o1 [Lapatinib] + COc1cc2c(Oc3ccc(NC(=O)C4(C(=O)Nc5ccc(F)cc5)CC4)cc3F)ccnc2cc1OCCCN1CCOCC1 [Foretinib] (partner 0.25 µM)
Summary of the method: (§1)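 Nuclei were stained with Hoechst during a one-step fixation (final 0.05% Triton X-100, 1% formaldehyde, 1 ug/ml Hoechst) carried out 5 days after dosing, then counted on 4× images. The cells, lung cancer lines in 1536-well plates, had been dosed by pin tool the day after seeding with one drug alone or a fixed anchor-drug dose plus five library-drug doses (not always all listed) in √10 steps. Relative viability is the nuclei count in treated wells divided by that in vehicle wells, and each value is the median of duplicate plates.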

Wnt-C59 + Trametinib = compound: CC1=NC=CC(=C1)C2=CC=C(C=C2)CC(=O)NC3=CC=C(C=C3)C4=CN=CC=C4 [Wnt-C59] + CC(=O)Nc1cccc(-n2c(=O)n(C3CC3)c(=O)c3c(Nc4ccc(I)cc4F)n(C)c(=O)c(C)c32)c1 [Trametinib] (partner 0.02 µM)
Summary of the method: as §1

Wnt-C59 + Olaparib = compound: CC1=NC=CC(=C1)C2=CC=C(C=C2)CC(=O)NC3=CC=C(C=C3)C4=CN=CC=C4 [Wnt-C59] + O=C(c1cc(Cc2n[nH]c(=O)c3ccccc23)ccc1F)N1CCN(C(=O)C2CC2)CC1 [Olaparib] (partner 8 µM)
Summary of the method: as §1

Lapatinib + AZD7762 = compound: CS(=O)(=O)CCNCc1ccc(-c2ccc3ncnc(Nc4ccc(OCc5cccc(F)c5)c(Cl)c4)c3c2)o1 [Lapatinib] + NC(=O)Nc1cc(-c2cccc(F)c2)sc1C(=O)N[C@H]1CCCNC1 [AZD7762] (partner 0.2 µM)
Summary of the method: as §1

NCI-H1666
relative viability (Lapatinib + Foretinib; first compound 0.02 µM): 0.815
relative viability (Lapatinib + Foretinib; first compound 0.06325 µM): 0.868
relative viability (Lapatinib + Foretinib; first compound 0.2 µM): 0.873
relative viability (Lapatinib + Foretinib; first compound 0.6325 µM): 0.652
relative viability (Lapatinib + Foretinib; first compound 2 µM): 0.558
relative viability (Wnt-C59 + Trametinib; first compound 0.001 µM): 0.894
relative viability (Wnt-C59 + Trametinib; first compound 0.01 µM): 0.762
relative viability (Wnt-C59 + Trametinib; first compound 0.03162 µM): 0.94
relative viability (Wnt-C59 + Trametinib; first compound 0.1 µM): 0.79
relative viability (Wnt-C59 + Olaparib; first compound 0.001 µM): 0.732
relative viability (Wnt-C59 + Olaparib; first compound 0.01 µM): 0.758
relative viability (Wnt-C59 + Olaparib; first compound 0.03162 µM): 0.711
relative viability (Wnt-C59 + Olaparib; first compound 0.1 µM): 0.817
relative viability (Lapatinib + AZD7762; first compound 0.02 µM): 0.573
relative viability (Lapatinib + AZD7762; first compound 0.06325 µM): 0.815
relative viability (Lapatinib + AZD7762; first compound 0.2 µM): 0.762
relative viability (Lapatinib + AZD7762; first compound 0.6325 µM): 0.778
relative viability (Lapatinib + AZD7762; first compound 2 µM): 0.619

NCI-H1792
relative viability (Wnt-C59 + Trametinib; first compound 0.001 µM): 0.395
relative viability (Wnt-C59 + Trametinib; first compound 0.01 µM): 0.348
relative viability (Wnt-C59 + Trametinib; first compound 0.03162 µM): 0.526
relative viability (Wnt-C59 + Trametinib; first compound 0.1 µM): 0.352
relative viability (Wnt-C59 + Olaparib; first compound 0.001 µM): 0.487
relative viability (Wnt-C59 + Olaparib; first compound 0.01 µM): 0.48
relative viability (Wnt-C59 + Olaparib; first compound 0.03162 µM): 0.525
relative viability (Wnt-C59 + Olaparib; first compound 0.1 µM): 0.385
relative viability (Lapatinib + AZD7762; first compound 0.2 µM): 0.568
relative viability (Lapatinib + AZD7762; first compound 0.6325 µM): 0.665
relative viability (Lapatinib + AZD7762; first compound 2 µM): 0.365

LCLC-103H
relative viability (Lapatinib + Foretinib; first compound 0.02 µM): 0.849
relative viability (Lapatinib + Foretinib; first compound 0.06325 µM): 0.744
relative viability (Lapatinib + Foretinib; first compound 0.2 µM): 0.753
relative viability (Lapatinib + Foretinib; first compound 0.6325 µM): 0.835
relative viability (Lapatinib + Foretinib; first compound 2 µM): 0.712
relative viability (Wnt-C59 + Trametinib; first compound 0.001 µM): 0.716
relative viability (Wnt-C59 + Trametinib; first compound 0.01 µM): 0.667
relative viability (Wnt-C59 + Trametinib; first compound 0.03162 µM): 0.667
relative viability (Wnt-C59 + Trametinib; first compound 0.1 µM): 0.713
relative viability (Wnt-C59 + Olaparib; first compound 0.001 µM): 0.81
relative viability (Wnt-C59 + Olaparib; first compound 0.01 µM): 0.737
relative viability (Wnt-C59 + Olaparib; first compound 0.03162 µM): 0.699
relative viability (Wnt-C59 + Olaparib; first compound 0.1 µM): 0.793
relative viability (Lapatinib + AZD7762; first compound 0.02 µM): 0.61
relative viability (Lapatinib + AZD7762; first compound 0.06325 µM): 0.575
relative viability (Lapatinib + AZD7762; first compound 0.2 µM): 0.791
relative viability (Lapatinib + AZD7762; first compound 0.6325 µM): 0.836
relative viability (Lapatinib + AZD7762; first compound 2 µM): 0.727

BEN
relative viability (Lapatinib + Foretinib; first compound 0.06325 µM): 0.667
relative viability (Lapatinib + Foretinib; first compound 0.2 µM): 0.653
relative viability (Lapatinib + Foretinib; first compound 0.6325 µM): 0.763
relative viability (Lapatinib + Foretinib; first compound 2 µM): 0.554
relative viability (Wnt-C59 + Trametinib; first compound 0.001 µM): 1.13
relative viability (Wnt-C59 + Trametinib; first compound 0.01 µM): 0.995
relative viability (Wnt-C59 + Trametinib; first compound 0.03162 µM): 1
relative viability (Wnt-C59 + Trametinib; first compound 0.1 µM): 1.04
relative viability (Wnt-C59 + Olaparib; first compound 0.001 µM): 1.32
relative viability (Wnt-C59 + Olaparib; first compound 0.01 µM): 1.04
relative viability (Wnt-C59 + Olaparib; first compound 0.03162 µM): 1.27
relative viability (Wnt-C59 + Olaparib; first compound 0.1 µM): 0.94
relative viability (Lapatinib + AZD7762; first compound 0.02 µM): 0.499
relative viability (Lapatinib + AZD7762; first compound 0.06325 µM): 0.704
relative viability (Lapatinib + AZD7762; first compound 0.2 µM): 0.587
relative viability (Lapatinib + AZD7762; first compound 0.6325 µM): 0.855
relative viability (Lapatinib + AZD7762; first compound 2 µM): 0.556

COR-L 105
relative viability (Lapatinib + Foretinib; first compound 0.02 µM): 0.987
relative viability (Lapatinib + Foretinib; first compound 0.06325 µM): 0.928
relative viability (Lapatinib + Foretinib; first compound 0.2 µM): 0.689
relative viability (Lapatinib + Foretinib; first compound 0.6325 µM): 0.491
relative viability (Lapatinib + Foretinib; first compound 2 µM): 0.582
relative viability (Wnt-C59 + Trametinib; first compound 0.001 µM): 0.444
relative viability (Wnt-C59 + Trametinib; first compound 0.01 µM): 0.433
relative viability (Wnt-C59 + Trametinib; first compound 0.03162 µM): 0.448
relative viability (Wnt-C59 + Trametinib; first compound 0.1 µM): 0.488
relative viability (Wnt-C59 + Olaparib; first compound 0.001 µM): 0.708
relative viability (Wnt-C59 + Olaparib; first compound 0.01 µM): 0.727
relative viability (Wnt-C59 + Olaparib; first compound 0.03162 µM): 0.684
relative viability (Wnt-C59 + Olaparib; first compound 0.1 µM): 0.656

LC-2-ad
relative viability (Lapatinib + Foretinib; first compound 0.06325 µM): 0.655
relative viability (Lapatinib + Foretinib; first compound 0.2 µM): 0.872
relative viability (Lapatinib + Foretinib; first compound 0.6325 µM): 0.769
relative viability (Lapatinib + Foretinib; first compound 2 µM): 0.567
relative viability (Wnt-C59 + Trametinib; first compound 0.001 µM): 0.904
relative viability (Wnt-C59 + Trametinib; first compound 0.01 µM): 0.874
relative viability (Wnt-C59 + Trametinib; first compound 0.03162 µM): 0.905
relative viability (Wnt-C59 + Trametinib; first compound 0.1 µM): 0.9
relative viability (Wnt-C59 + Olaparib; first compound 0.001 µM): 0.725
relative viability (Wnt-C59 + Olaparib; first compound 0.01 µM): 0.74
relative viability (Wnt-C59 + Olaparib; first compound 0.03162 µM): 0.716
relative viability (Wnt-C59 + Olaparib; first compound 0.1 µM): 0.356
relative viability (Lapatinib + AZD7762; first compound 0.06325 µM): 0.562
relative viability (Lapatinib + AZD7762; first compound 0.2 µM): 0.768
relative viability (Lapatinib + AZD7762; first compound 0.6325 µM): 0.684
relative viability (Lapatinib + AZD7762; first compound 2 µM): 0.552

NCI-H358
relative viability (Lapatinib + Foretinib; first compound 0.02 µM): 0.613
relative viability (Lapatinib + Foretinib; first compound 0.06325 µM): 0.33
relative viability (Lapatinib + Foretinib; first compound 0.2 µM): 0.422
relative viability (Lapatinib + Foretinib; first compound 0.6325 µM): 0.317
relative viability (Lapatinib + Foretinib; first compound 2 µM): 0.17
relative viability (Wnt-C59 + Trametinib; first compound 0.001 µM): 0.129
relative viability (Wnt-C59 + Trametinib; first compound 0.01 µM): 0.119
relative viability (Wnt-C59 + Trametinib; first compound 0.03162 µM): 0.143
relative viability (Wnt-C59 + Trametinib; first compound 0.1 µM): 0.1
relative viability (Wnt-C59 + Olaparib; first compound 0.001 µM): 0.623
relative viability (Wnt-C59 + Olaparib; first compound 0.01 µM): 0.609
relative viability (Wnt-C59 + Olaparib; first compound 0.03162 µM): 0.576
relative viability (Wnt-C59 + Olaparib; first compound 0.1 µM): 0.801
relative viability (Lapatinib + AZD7762; first compound 0.02 µM): 0.459
relative viability (Lapatinib + AZD7762; first compound 0.06325 µM): 0.364
relative viability (Lapatinib + AZD7762; first compound 0.2 µM): 0.379
relative viability (Lapatinib + AZD7762; first compound 0.6325 µM): 0.388
relative viability (Lapatinib + AZD7762; first compound 2 µM): 0.282

HARA
relative viability (Lapatinib + Foretinib; first compound 0.06325 µM): 0.593
relative viability (Lapatinib + Foretinib; first compound 0.2 µM): 0.843
relative viability (Lapatinib + Foretinib; first compound 0.6325 µM): 0.631
relative viability (Lapatinib + Foretinib; first compound 2 µM): 0.401
relative viability (Wnt-C59 + Trametinib; first compound 0.001 µM): 0.785
relative viability (Wnt-C59 + Trametinib; first compound 0.01 µM): 0.691
relative viability (Wnt-C59 + Trametinib; first compound 0.03162 µM): 0.933
relative viability (Wnt-C59 + Trametinib; first compound 0.1 µM): 0.879
relative viability (Wnt-C59 + Olaparib; first compound 0.001 µM): 0.826
relative viability (Wnt-C59 + Olaparib; first compound 0.01 µM): 0.784
relative viability (Wnt-C59 + Olaparib; first compound 0.03162 µM): 0.866
relative viability (Wnt-C59 + Olaparib; first compound 0.1 µM): 0.856
relative viability (Lapatinib + AZD7762; first compound 0.02 µM): 0.174
relative viability (Lapatinib + AZD7762; first compound 0.06325 µM): 0.379
relative viability (Lapatinib + AZD7762; first compound 0.2 µM): 0.51
relative viability (Lapatinib + AZD7762; first compound 0.6325 µM): 0.344
relative viability (Lapatinib + AZD7762; first compound 2 µM): 0.247

SK-LU-1
relative viability (Lapatinib + Foretinib; first compound 0.02 µM): 0.773
relative viability (Lapatinib + Foretinib; first compound 0.06325 µM): 0.789
relative viability (Lapatinib + Foretinib; first compound 0.2 µM): 0.857
relative viability (Lapatinib + Foretinib; first compound 0.6325 µM): 0.8
relative viability (Lapatinib + Foretinib; first compound 2 µM): 0.883
relative viability (Wnt-C59 + Trametinib; first compound 0.001 µM): 0.561
relative viability (Wnt-C59 + Trametinib; first compound 0.01 µM): 0.506
relative viability (Wnt-C59 + Trametinib; first compound 0.03162 µM): 0.533
relative viability (Wnt-C59 + Trametinib; first compound 0.1 µM): 0.422
relative viability (Wnt-C59 + Olaparib; first compound 0.001 µM): 0.444
relative viability (Wnt-C59 + Olaparib; first compound 0.01 µM): 0.476
relative viability (Wnt-C59 + Olaparib; first compound 0.03162 µM): 0.4
relative viability (Wnt-C59 + Olaparib; first compound 0.1 µM): 0.434

ABC-1
relative viability (Lapatinib + Foretinib; first compound 0.02 µM): 0.949
relative viability (Lapatinib + Foretinib; first compound 0.06325 µM): 0.912
relative viability (Lapatinib + Foretinib; first compound 0.2 µM): 1.16
relative viability (Lapatinib + Foretinib; first compound 0.6325 µM): 1.32
relative viability (Lapatinib + Foretinib; first compound 2 µM): 0.964
relative viability (Wnt-C59 + Olaparib; first compound 0.001 µM): 1
relative viability (Wnt-C59 + Olaparib; first compound 0.01 µM): 0.898
relative viability (Wnt-C59 + Olaparib; first compound 0.03162 µM): 0.502
relative viability (Wnt-C59 + Olaparib; first compound 0.1 µM): 0.846
relative viability (Lapatinib + AZD7762; first compound 0.06325 µM): 0.73
relative viability (Lapatinib + AZD7762; first compound 0.2 µM): 0.821
relative viability (Lapatinib + AZD7762; first compound 0.6325 µM): 0.774
relative viability (Lapatinib + AZD7762; first compound 2 µM): 1.07
